Literature values in paper PMC12495087 (ESMO Open, 2025).
Where two headings read alike, the source gives them in different places.

How the values were obtained:
[1] = cited from earlier work
[2] = system: RET-fusion-positive NSCLC; settings: cited from earlier work
[3] = system: RET-fusion-positive solid tumors including RET-mutant MTC; settings: cited from earlier work
[4] = previously treated RET-fusion-positive NSCLC, selpercatinib 160 mg twice daily, pralsetinib 400 mg once daily
[5] = previously treated RET-fusion-positive solid tumors including RET-mutant MTC, 160 mg twice daily
[6] = patients with MTC harboring RET-M918T
[7] = advanced RET-rearranged lung adenocarcinomas

COc1ccc(CN2C3CC2CN(c2ccc(-c4cc(OCC(C)(C)O)cn5ncc(C#N)c45)cn2)C3)cn1 [selpercatinib]
grade ≥3 hypertension [1]: around 20%
mPFS ([2]; previously treated RET-fusion-positive NSCLC, 160 mg twice daily): 16.5 months
ORR [2, 4]: 64%
1-year PFS [3, 5]: 82%
mPFS [3, 5]: 13.2 months

COc1cc2nccc(Oc3ccc(NC(=O)NC4CC4)c(Cl)c3)c2cc1C(N)=O [lenvatinib]
ORR [3, 6]: 16%
mPFS [3, 6]: 7.3 months

COc1cc2nccc(Oc3ccc(NC(=O)C4(C(=O)Nc5ccc(F)cc5)CC4)cc3)c2cc1OC [cabozantinib]
ORR [2, 7]: 28%
mPFS [2, 7]: 5.5 months

CO[C@]1(C(=O)N[C@@H](C)c2ccc(-n3cc(F)cn3)nc2)CC[C@H](c2nc(C)cc(Nc3cc(C)[nH]n3)n2)CC1 [pralsetinib]
grade ≥3 hypertension [1]: ~18%
ORR [2, 4]: 61%
